# Laboratory results published in patent US10047105B2, “Gyrase inhibitors” (Merck Sharp & Dohme Corp., priority 2009, dated 2018).
# What was measured:
# Assay type in all cases: cell-based
# S. pneumoniae ATCC 51916 = assay: MIC, S. pneumoniae; details: S. pneumoniae (Spn52); in µg/mL
# S. aureus ATCC 13709 = assay: MIC, antibacterial potency, S. aureus; details: S. aureus (SA); in µg/mL
# E. coli 8 ATCC 25922 = assay: MIC, E. coli 8 (wt); details: E. coli 8 (EC8)
Structure (SMILES),MIC Spn52 (S. pneumoniae ATCC 51916),"MIC, SA (S. aureus ATCC 13709)",MIC EC8 (E. coli 8 ATCC 25922)
"CCc1[nH]c2nc(Sc3cccnc3)nc(N3C[C@@H]4[C@@H](N)[C@@H]4C3)c2c1C(F)F [701,162]",32,16,> 32 µg/mL
"CCc1[nH]c2nc(Sc3cnc4nccnc4c3)nc(N3C[C@@H](O)[C@@H](N)C3)c2c1Cl [701,119]",16,32,> 64 µg/mL
"CCc1[nH]c2nc(Sc3ccc4cc5c([n+]([O-])c4c3)CCOC5)nc(N3CC[C@@H](N)C3)c2c1Cl [701,083]",1,<=0.5,16 µg/mL
"CCc1[nH]c2nc(Sc3cnc4c(c3)c(=O)ncn4C)nc(N3CC4C(N)C4C3)c2c1C (stereo not drawn) [701,292]",>32,32,> 32 µg/mL
"CCc1[nH]c2nc(Sc3ccc4cc5c([n+]([O-])c4c3)CCNC5)nc(N3CCc4nc(N)sc4C3)c2c1Cl [700,990]",16,1,> 64 µg/mL
"CCc1[nH]c2nc(Sc3ccc4c(N5CCC(N)CC5)nc(C)nc4c3)nc(N3CC4C(N)C4C3)c2c1Cl (stereo not drawn) [700,984]",8,4,8 µg/mL
"CCc1[nH]c2nc(Sc3ccc4[nH]cc(C#N)c(=O)c4c3)nc(N3CC[C@@H](N)C3)c2c1Cl [700,919]",>64,>64,> 64 µg/mL
"CCc1[nH]c2nc(Oc3ccc4nccnc4c3)nc(N3CC(N)C3)c2c1Cl [700,963]",4,1,> 64 µg/mL
"CCc1[nH]c2nc(Oc3ccc4ncnc(N5CC(N)C5)c4c3)nc(Oc3cncc(C#N)c3)c2c1Br [701,299]",4,2,> 64 µg/mL
"CCc1[nH]c2nc(Sc3cnc4nccnc4c3)nc(N(CCN)CC(C)C)c2c1Cl [701,148]",64,64,> 64 µg/mL
"CCc1[nH]c2nc(Oc3cncc(C(=O)O)c3)nc(Oc3cncnc3)c2c1Cl [700,932]",>64,>64,> 64 µg/mL
"CCc1[nH]c2nc(Oc3cncc(C#N)c3)ncc2c1Cl [701,261]",16,4,> 64 µg/mL
CCc1[nH]c2nc(Sc3cnc4ccc[n+]([O-])c4c3)nc(N3CC[C@@H](N)C3)c2c1Cl [701008-2],1,<=0.5,4 µg/mL
"CCc1[nH]c2nc(Oc3cnc(N)nc3)nc(Oc3cnc(N)nc3)c2c1Br [701,106]",4,2,> 64 µg/mL
"CCc1[nH]c2nc(Sc3cnc4c(c3)c(=O)ncn4C)nc(N3CC4C(N)C4C3)c2c1Cl (stereo not drawn) [701,270]",4,<=0.5,32 µg/mL
"CCc1[nH]c2nc(Oc3ccc4nccnc4c3)nc(Oc3ccc4c(c3)ncc[n+]4[O-])c2c1Br [701,060]",<=0.5,<=0.5,> 64 µg/mL
"CCc1[nH]c2nc(Oc3cnc(C)nc3)nc(N3CC4C(N)C4C3)c2c1Cl (stereo not drawn) [701,151]",2,<=0.5,8 µg/mL
"CCc1[nH]c2nc(Oc3cc(C#N)c(OC)c(OC)c3)nc(Oc3ccc4nccnc4c3)c2c1Br [701,081]",<=0.5,<=0.5,> 32 µg/mL
"CCc1[nH]c2nc(Sc3cnc4cccnc4c3)nc(N3C[C@H](N)[C@H](C(=O)N4CC(N)C4)C3)c2c1Cl [701,016]",>64,>64,> 64 µg/mL
"CCc1[nH]c2nc(Oc3ccc4nccnc4c3)nc(Oc3cnc4c(c3)ncn4C)c2c1Br [700,988]",<=0.5,<=0.5,> 64 µg/mL
"CCc1[nH]c2nc(Oc3cccc(C#N)c3)nc(C(C)O)c2c1Cl (stereo not drawn) [700,930]",16,8,> 64 µg/mL
"CCc1[nH]c2nc(Sc3cnc4nccnc4c3)nc(N3CC4CNC(C4)C3)c2c1Cl (stereo not drawn) [701,137]",4,2,64 µg/mL
"CCc1[nH]c2nc(Sc3cnc4cccnc4c3)nc(N3C[C@H](N)[C@H](C(=O)N[C@@H](CO)c4ccccc4)C3)c2c1Cl [701,021]",4,4,> 64 µg/mL
"CCc1[nH]c2nc(Sc3ccc4c(c3)C(=O)NC4)nc(N3CC4C(N)C4C3)c2c1Cl (stereo not drawn) [700,974]",2,<=0.5,32 µg/mL
"CCc1[nH]c2nc(Oc3cccc(C#N)c3)nc(C(C)N3CC4C(N)C4C3)c2c1Cl (stereo not drawn) [700,951]",>16,>16,> 16 µg/mL
"N[C@@H]1CCN(c2nc(Sc3cnc4nccnc4c3)nc3[nH]c(C4CC4)c(Cl)c23)C1 [700,977]",4,16,8 µg/mL
"CCc1[nH]c2nc(Sc3cnc4cccnc4c3)nc(N3C[C@H](N)[C@H](C(=O)NCC(C)C)C3)c2c1Cl [701,017]",1,2,> 64 µg/mL
